Test [1] has as its system Mycobacterium tuberculosis. The experiment in a line: Antimycobacterial activity against GFP-fused Mycobacterium tuberculosis H37Rv after 7 days by fluorescence assay. It counts as functional. As to conditions: 168 h.
The subject of test [2] is Mycobacterium tuberculosis. The experiment in a line: Antimycobacterial activity against Mycobacterium tuberculosis H37Rv after overnight incubation by REMA method. In kind it is functional.
For test [3], the target named is T1, Decaprenylphosphoryl-beta-D-ribose oxidase (Mycobacterium tuberculosis (strain ATCC 25618 / H37Rv), UniProt P9WJF1).
T1 sequence (P9WJF1 whole entry): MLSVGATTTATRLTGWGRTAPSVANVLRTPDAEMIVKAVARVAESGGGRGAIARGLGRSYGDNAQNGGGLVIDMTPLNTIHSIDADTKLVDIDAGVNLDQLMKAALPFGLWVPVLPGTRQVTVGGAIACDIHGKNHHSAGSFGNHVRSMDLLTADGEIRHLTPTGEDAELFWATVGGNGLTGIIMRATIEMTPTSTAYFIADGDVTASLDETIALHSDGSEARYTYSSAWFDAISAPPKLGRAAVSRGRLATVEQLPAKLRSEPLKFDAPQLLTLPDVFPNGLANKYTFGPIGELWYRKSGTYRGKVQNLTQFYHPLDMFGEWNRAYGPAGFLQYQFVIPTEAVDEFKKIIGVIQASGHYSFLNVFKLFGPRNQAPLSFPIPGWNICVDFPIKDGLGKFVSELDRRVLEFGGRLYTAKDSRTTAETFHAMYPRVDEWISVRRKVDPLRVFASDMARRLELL
The experiment in a line: Inhibition of Mycobacterium tuberculosis H37Rv DprE1.

Test [4] concerns Mycobacterium tuberculosis. The experiment in a line: Antimycobacterial activity against Mycobacterium tuberculosis H37Rv after 24 hrs by REMA method. In kind it is functional.
For test [5], the system named is Mycobacterium tuberculosis. The test is described as follows: Antimycobacterial activity against Mycobacterium tuberculosis after 5 days by turbidity assay. In kind it is functional. The following applies: 120 h.
Test [6] deals with Mycobacterium tuberculosis. The experiment in a line: Antimycobacterial activity against GFP-fused Mycobacterium tuberculosis H37Rv by resazurin dye-based micro-broth dilution method. In kind it is functional. On the technique in general: Alamar Blue is a resazurin reagent that responds to reducing activity.
Test [7] addresses T2, Decaprenylphosphoryl-beta-D-ribose oxidase (Mycobacterium tuberculosis (strain ATCC 25618 / H37Rv)) (UniProt P9WJF1).
T2 sequence (whole entry): T1 sequence (P9WJF1 whole entry)
The experiment in a line: Inhibition of Mycobacterium tuberculosis H37Rv DprE1 at 50 uM relative to control.

The target in test [8] is T1, Decaprenylphosphoryl-beta-D-ribose oxidase. The experiment in a line: Inhibition of N-terminal His6-thioredoxin tagged Mycobacterium tuberculosis H37Rv DprE1 expressed in Escherichia coli BL21(DE3) using FPR as substrate by resazurin dye-based fluorescence assay.
Another test addresses Cytochrome P450 2C9 (Homo sapiens, UniProt P11712). The test is described as follows: Inhibition of CYP2C9 in human liver microsomes using diclofenac as substrate after 30 mins by in presence of NADPH by LC-MS/MS analysis. In kind it is ADME.
Test [9] deals with Mycobacterium tuberculosis. The test is described as follows: Antimycobacterial activity against Mycobacterium tuberculosis H37Rv infected in C57BL/6 mouse primary macrophages assessed as reduction in colony forming unit at 5 uM after 2 hrs followed by compound wash out and measured after 7 days by serial dilution method relative to control. It counts as functional.
Test [10] concerns Mycobacterium tuberculosis. The test is described as follows: Antimycobacterial activity against Mycobacterium tuberculosis H37Rv infected in human primary macrophages assessed as reduction in colony forming unit at 5 uM after 2 hrs followed by compound wash out and measured after 7 days by serial dilution method relative to control. In kind it is functional.
Test [11] deals with Mycobacterium tuberculosis. The test is described as follows: Antimycobacterial activity against Mycobacterium tuberculosis in 7H9 medium. In kind it is functional, organism-based.
The test system of test [12] is Mycobacterium tuberculosis. The experiment in a line: Antimycobacterial activity against Mycobacterium tuberculosis in biofilm medium. In kind it is functional, organism-based.
Test [13] can be described thus: Binding affinity to Mycobacterium tuberculosis DprE1.
The nature of test [14]: Inhibition of Mycobacterium tuberculosis DprE1 using FPR as substrate by resazurin dye-based fluorescence assay.
Test [15] has as its system Mycobacterium tuberculosis. The experiment in a line: Antimycobacterial activity against recombinant GFP-fused Mycobacterium tuberculosis H37Rv after 10 days by resazurin dye-based assay. In kind it is functional. The following applies: 240 h.
Test [16] concerns Mycobacterium tuberculosis. The test is described as follows: Bactericidal activity against recombinant GFP-fused Mycobacterium tuberculosis H37Rv by resazurin dye-based assay. In kind it is functional.
The target of test [17] is T2, Decaprenylphosphoryl-beta-D-ribose oxidase (Mycobacterium tuberculosis (strain ATCC 25618 / H37Rv)). The experiment in a line: Ratio of IC50 for inhibition of Mycobacterium tuberculosis H37Rv DprE1 using FPR as substrate in presence of SAM by resazurin dye-based spectrofluorimetric analysis to IC50 for inhibition of Mycobacterium tuberculosis H37Rv DprE1 using FPR as substrate in absence of SAM by resazurin dye-based spectrofluorimetric analysis.

Test [18] has as its target T1, Decaprenylphosphoryl-beta-D-ribose oxidase. The test is described as follows: Inhibition of Mycobacterium tuberculosis H37Rv DprE1 using FPR as substrate preincubated for 6.5 hrs followed by substrate addition by resazurin dye-based spectrofluorimetric analysis.
Test [19] deals with T2, Decaprenylphosphoryl-beta-D-ribose oxidase (Mycobacterium tuberculosis (strain ATCC 25618 / H37Rv)). The experiment in a line: Inhibition of GFP-fused Mycobacterium tuberculosis H37Rv DprE1 after 72 hrs by fluorescence assay.

≈ marks a conversion by molar mass, not a printed value.

Sequence of Cytochrome P450 2C9 (P11712 whole entry): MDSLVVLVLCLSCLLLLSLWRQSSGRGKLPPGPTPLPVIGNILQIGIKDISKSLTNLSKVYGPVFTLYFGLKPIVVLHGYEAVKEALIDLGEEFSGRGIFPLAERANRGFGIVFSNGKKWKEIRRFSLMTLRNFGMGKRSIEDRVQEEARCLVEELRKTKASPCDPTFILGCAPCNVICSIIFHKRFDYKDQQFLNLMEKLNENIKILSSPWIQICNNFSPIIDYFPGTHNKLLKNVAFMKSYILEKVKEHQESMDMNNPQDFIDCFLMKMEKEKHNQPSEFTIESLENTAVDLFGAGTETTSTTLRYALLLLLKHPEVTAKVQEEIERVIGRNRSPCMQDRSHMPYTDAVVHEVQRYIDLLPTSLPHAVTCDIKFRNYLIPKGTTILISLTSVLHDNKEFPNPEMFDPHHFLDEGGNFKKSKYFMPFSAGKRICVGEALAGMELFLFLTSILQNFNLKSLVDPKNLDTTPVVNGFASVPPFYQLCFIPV

On to `O=C(NCCOc1ccccc1F)c1cc([N+](=O)[O-])cc([N+](=O)[O-])c1`, for which the lowest concentration to inhibit growth in [1] (MIC) was 0.7 µM (≈ 0.244 µg/mL).
With `O=C(O)c1nc2ccc(C(F)(F)F)cc2nc1NCc1ccc(Cl)cc1`, the MIC99 (commonly the lowest concentration that inhibits either 99% of growth or 99% of the strains tested, depending on the study) in [2] was 3.1 µM (≈ 1.18 µg/mL). In addition, the IC50 (usually the concentration that gives 50% inhibition) in [3] amounted to 50 nM.
Taken in the same sequence, the figures for `O=C(O)c1nc2ccc(C(F)(F)F)cc2nc1NCc1ccc(C(F)(F)F)cc1` were 6.3 µM (≈ 2.62 µg/mL) and 120 nM.
For the molecule `Cc1ccc(C)n1-c1cc(C(F)(F)F)cc2c(=O)nc(N3CCC4(CC3)OC[C@H](C)O4)sc12`, 2.5 µg/mL (≈ 5.21 µM) was the least that counted as inhibitory in [4] (MIC).
On to `C[C@H]1COC2(CCN(c3nc(=O)c4cc(C(F)(F)F)cc(-n5cccc5)c4s3)CC2)O1`, for which the MIC (usually the smallest concentration in the dilution series that meets the test's criterion for growth inhibition) in test [4] came to 0.16 µg/mL (≈ 0.354 µM).
On to `Cc1ccc(C(F)(F)F)cc1CNCc1cc2c(C(C)C)nn(-c3ccccc3)c2[nH]c1=O`, for which the MIC in test [5] stood at 0.4 µM (≈ 0.182 µg/mL).
Take `O=C(NCCOCc1cccc(C(F)(F)F)c1)c1cc([N+](=O)[O-])cc([N+](=O)[O-])c1`: the MIC in test [1] is 0.2 µM (≈ 0.0827 µg/mL).
In test [6], `C[C@H]1COC2(CCN(c3nc(=O)c4cc(C(F)(F)F)cc([N+](=O)[O-])c4s3)CC2)O1` [BTZ-043] displayed an MIC of 0.001 µg/mL (≈ 0.00232 µM).
Molecule `Cc1nc2cc(Br)cc([N+](=O)[O-])c2nc1-c1ccccc1` returned a minimal inhibitory concentration (MIC) in test [2] of 3.1 µM (≈ 1.07 µg/mL).
As to `CCOC(=O)c1nc2ccc(C(F)(F)F)cc2nc1NCc1ccc(OC)cc1`, the inhibition (usually the share of the control response that was lost under treatment) in [7] is 54%. Moreover, the MIC99 in test [2] was determined as 3.1 µM (≈ 1.26 µg/mL).
Take `Cc1nc2cc(C(F)(F)F)cc([N+](=O)[O-])c2nc1-c1ccccc1`: the MIC in test [2] was 0.75 µM (≈ 0.25 µg/mL).
In [6], `NNC(=O)c1ccncc1` [ISONIAZID] registered an MIC of 20 to 200 µg/mL (≈ 146 to 1460 µM).
Turning to `COc1ccc(O[C@H]2CCN(C(=O)c3cc([N+](=O)[O-])cc([N+](=O)[O-])c3)C2)cc1`, the MIC in [1] is 20 µM (≈ 7.75 µg/mL).
In test [2], `Cc1nc2c([N+](=O)[O-])cc(C(F)(F)F)cc2nc1-c1ccccc1` had an MIC of 6.25 µM (≈ 2.08 µg/mL).
In [1], `O=C(NCCOCc1cccc(Cl)c1)c1cc([N+](=O)[O-])cc([N+](=O)[O-])c1` registered an MIC of 1 µM (≈ 0.38 µg/mL).
Molecule `O=C(NCCOCc1ccccc1)c1cc([N+](=O)[O-])cc([N+](=O)[O-])c1` came in with an MIC in test [1] of 0.2 µM (≈ 0.0691 µg/mL).
Turning to `CCOc1ccc(CNc2nc3cc(C(F)(F)F)ccc3nc2C(=O)O)cc1`, in test [2], the MIC99 worked out at 3.1 µM (≈ 1.21 µg/mL). For the same molecule, inhibition in [3] was half-maximal at 88 nM (IC50).
With `Cc1ccnc(NC(=O)c2ccsc2NC(=O)c2ccn3cnnc3c2)n1`, the IC50 in [8] was 30 nM; on Cytochrome P450 2C9, over 50000 nM.
For the molecule `COc1ccc(OCCNC(=O)c2cc([N+](=O)[O-])cc([N+](=O)[O-])c2)cc1`, the “fold change (FC)” value in [9] and in [10] was 10 each time. Moreover, it took 0.2 µM (≈ 0.0723 µg/mL) to inhibit growth in test [1] (MIC).
For `O=C(NCCOCc1cccc(Cl)c1)c1cccc([N+](=O)[O-])c1`, the MIC in test [1] was over 20 µM.
`CCOC(=O)NC(=O)c1ccsc1NC(=O)c1nc2ccccc2s1`: the IC50 in [11] was 0.19 µg/mL (≈ 0.506 µM); in test [12] it was 0.01 µg/mL (≈ 0.0266 µM).
`O=C(NCCOCc1ccccc1F)c1cc([N+](=O)[O-])cc([N+](=O)[O-])c1`: in test [1], the MIC was found to be 0.08 µM (≈ 0.0291 µg/mL).
In [5], `Cc1ccc(C(F)(F)F)cc1CNCc1cc2c(C)nn(-c3ccccc3)c2[nH]c1=O` displayed an MIC of 0.8 µM (≈ 0.341 µg/mL).
As to `CC[C@@H](CO)NCCN[C@@H](CC)CO` [ETHAMBUTOL], the MIC in test [6] is 1000 to 5000 µg/mL (≈ 4890 to 24500 µM).
In the case of `O=C(C1CCN(c2nnc(-n3cccc3)s2)CC1)N1CCC(Cc2ccccc2)CC1`, the Kd (as a rule, the equilibrium constant for the complex coming apart) in test [13] is 250 nM. For the same molecule, the IC50 in test [14] is 54 nM.
In test [8], `CCOC(=O)NC(=O)c1ccsc1NC(=O)c1ccn2cnnc2c1` registered an IC50 of 60 nM.
On to `COc1ccc(CNc2nc3cc(C(F)(F)F)ccc3nc2C(=O)O)cc1F`, for which, in test [2], the MIC99 lay in the range of 6.3 to 12.5 µM (≈ 2.49 to 4.94 µg/mL). Also, the IC50 in test [3] was 80 nM.
Taken in the same sequence, the figures for `N#Cc1ccc(CNc2nc3cc(C(F)(F)F)ccc3nc2C(=O)O)cc1` were 50 µM (≈ 18.6 µg/mL) and 67 nM.
Consider `CCc1nc2cc(Cl)ccn2c1C(=O)NCc1ccc(N2CCN(c3ccc(F)cc3)CC2)cc1`, for which the minimum inhibitory concentration (MIC) in test [15] is 0.017 µM. Moreover, the MBC (commonly the lowest tested concentration that kills the bacteria rather than only halting them) in [16] is over 200 µM. Further, in [3], the IC50 was over 10000 nM.
As for `COC(=O)c1ccc(O[C@H]2CCN(C(=O)c3cc([N+](=O)[O-])cc([N+](=O)[O-])c3)C2)cc1`, in test [1], the MIC is over 20 µM.
Regarding `Cc1c(CCC(=O)N2CCCC2)c(=O)n2c([nH]c3ccccc32)c1C#N`, the Ratio IC50 in [17] was found to be 36. The IC50 in test [18] was found to be 70 nM.
`O=C(NCCOCc1cccc(Cl)c1)c1cc(NO)cc([N+](=O)[O-])c1`: the minimum inhibitory concentration (MIC) in test [1] is over 20 µM.
Molecule `Cc1ccc(C(F)(F)F)cc1CNCc1cc2c(C3CC3)nn(-c3ccccc3)c2[nH]c1=O` displayed an MIC in [5] of 0.1 µM (≈ 0.0452 µg/mL).
As to `CCCCN1CCN(c2nc(=O)c3cc(C(F)(F)F)cc(-n4cccc4)c3s2)CC1`, in test [4], it took 0.62 µg/mL (≈ 1.42 µM) to inhibit growth (MIC).
As for `CC(C)(C)c1ccc(Cn2cnc([N+](=O)[O-])n2)cc1`, the IC90 (commonly the concentration at which the effect reaches the 90% level) in test [19] turned out to be 500 nM.
`O=c1nc(N2CCN(CC3CCCCC3)CC2)sc2c(-n3cccc3)cc(C(F)(F)F)cc12` gave an MIC in [4] of 0.16 µg/mL (≈ 0.336 µM).
Take `Nc1cc(C(=O)NCCOCc2cccc(Cl)c2)cc([N+](=O)[O-])c1`: the MIC in [1] is over 20 µM.
The same measure, in the same setting: the result for `COc1ccc(O[C@H]2CCCN(C(=O)c3cc([N+](=O)[O-])cc([N+](=O)[O-])c3)C2)cc1` reads 20 µM (≈ 8.03 µg/mL).
Take `COc1ccc(CNc2nc3cc(C(F)(F)F)ccc3nc2C(=O)O)cc1`: the MIC99 in test [2] worked out at 3.1 µM (≈ 1.17 µg/mL). Further, in test [3], the IC50 was found to be 41 nM.
`O=C(O)c1nc2ccc(C(F)(F)F)cc2nc1NCc1ccc(F)cc1`: the MIC99 in test [2] was found to be 12.5 µM (≈ 4.57 µg/mL). The molecule further displayed an IC50 in [3] of 72 nM.
